Experimental findings from ChEMBL document CHEMBL3525953, “In vitro cytochrome P450-mediated metabolism of exemestane” (Drug Metab Dispos, 2011) are described below.

Format in all cases: ADME
The target in one data set is Cytochrome P450 3A4 (Homo sapiens, UniProt P08684). Put plainly: Drug metabolism assessed as human recombinant CYP3A4-mediated 6-Hydroxymethylexemestane formation rate per pmol of enzyme at 10 uM after 10 mins.
The target in a further data set is Cytochrome P450 3A5 (Homo sapiens, UniProt P20815). Put plainly: Drug metabolism assessed as human recombinant CYP3A5-mediated 6-Hydroxymethylexemestane formation rate per pmol of enzyme at 10 uM after 10 mins.
The target of data set [1] is T1, Cytochrome P450 2B6 (Homo sapiens, UniProt P20813).
T1 sequence (P20813 whole entry): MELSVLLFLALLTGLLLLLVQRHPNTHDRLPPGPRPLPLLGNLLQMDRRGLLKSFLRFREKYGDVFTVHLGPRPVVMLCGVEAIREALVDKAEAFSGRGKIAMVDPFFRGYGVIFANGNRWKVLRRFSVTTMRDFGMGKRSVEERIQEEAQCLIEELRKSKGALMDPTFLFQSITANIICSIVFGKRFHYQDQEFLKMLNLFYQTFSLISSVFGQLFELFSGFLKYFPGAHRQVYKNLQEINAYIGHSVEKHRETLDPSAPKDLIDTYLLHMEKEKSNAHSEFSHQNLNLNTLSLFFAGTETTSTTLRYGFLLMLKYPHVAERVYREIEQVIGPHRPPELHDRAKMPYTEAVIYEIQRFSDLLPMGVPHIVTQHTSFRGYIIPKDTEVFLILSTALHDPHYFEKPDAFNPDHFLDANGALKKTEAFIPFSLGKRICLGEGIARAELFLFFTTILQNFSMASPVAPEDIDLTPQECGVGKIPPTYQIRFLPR
Put plainly: Drug metabolism assessed as human recombinant CYP2B6-mediated 6-Hydroxymethylexemestane formation rate per pmol of enzyme at 10 uM after 10 mins.

Data set [2] concerns the target T2, Cytochrome P450 2C9 (Homo sapiens, UniProt P11712). The data set can be described thus: Drug metabolism assessed as human recombinant CYP2C9-mediated 6-Hydroxymethylexemestane formation rate per pmol of enzyme at 10 uM after 10 mins.
In another data set the target is T3, Cytochrome P450 1A1 (Homo sapiens, UniProt P04798).
T3 sequence (P04798 whole entry): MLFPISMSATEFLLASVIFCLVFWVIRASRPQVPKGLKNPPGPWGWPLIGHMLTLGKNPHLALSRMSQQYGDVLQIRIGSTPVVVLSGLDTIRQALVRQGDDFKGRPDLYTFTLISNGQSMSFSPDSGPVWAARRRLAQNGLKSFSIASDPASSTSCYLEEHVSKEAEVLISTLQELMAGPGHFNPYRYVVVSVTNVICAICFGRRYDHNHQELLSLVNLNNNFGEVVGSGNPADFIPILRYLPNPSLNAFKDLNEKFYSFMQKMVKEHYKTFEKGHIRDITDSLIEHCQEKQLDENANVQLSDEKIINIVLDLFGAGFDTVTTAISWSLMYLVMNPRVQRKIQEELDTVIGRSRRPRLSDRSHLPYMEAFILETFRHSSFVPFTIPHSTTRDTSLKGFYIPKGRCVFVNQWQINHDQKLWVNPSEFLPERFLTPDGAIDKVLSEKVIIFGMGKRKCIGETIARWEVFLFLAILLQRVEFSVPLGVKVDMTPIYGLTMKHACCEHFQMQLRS
Put plainly: Drug metabolism assessed as human recombinant CYP1A1-mediated 6-Hydroxymethylexemestane formation rate per pmol of enzyme at 10 uM after 10 mins.

In data set [3] the target is T4, Cytochrome P450 2C19 (Homo sapiens, UniProt P33261). The data set can be described thus: Drug metabolism assessed as human recombinant CYP2C19-mediated 6-Hydroxymethylexemestane formation rate per pmol of enzyme at 10 uM after 10 mins.
Data set [4] deals with T5, Cytochrome P450 2C8 (Homo sapiens, UniProt P10632).
T5 sequence (P10632 whole entry): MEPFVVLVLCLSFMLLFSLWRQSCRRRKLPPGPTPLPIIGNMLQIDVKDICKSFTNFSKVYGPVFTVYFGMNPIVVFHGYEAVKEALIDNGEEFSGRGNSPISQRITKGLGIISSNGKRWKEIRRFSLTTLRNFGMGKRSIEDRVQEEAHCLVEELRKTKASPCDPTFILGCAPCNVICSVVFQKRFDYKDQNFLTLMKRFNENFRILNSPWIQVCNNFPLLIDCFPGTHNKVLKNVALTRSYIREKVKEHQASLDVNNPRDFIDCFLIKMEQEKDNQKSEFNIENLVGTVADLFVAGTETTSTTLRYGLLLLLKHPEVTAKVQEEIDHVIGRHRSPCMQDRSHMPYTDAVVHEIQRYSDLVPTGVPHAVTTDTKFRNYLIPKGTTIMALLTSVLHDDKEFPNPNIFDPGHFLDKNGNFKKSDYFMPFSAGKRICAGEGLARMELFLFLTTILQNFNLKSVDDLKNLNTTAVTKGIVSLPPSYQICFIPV
The data set can be described thus: Drug metabolism assessed as human recombinant CYP2C8-mediated 6-Hydroxymethylexemestane formation rate per pmol of enzyme at 10 uM after 10 mins.

The subject of data set [5] is Liver microsome. The data set can be described thus: Drug metabolism in human liver microsomes assessed as 6-hydroxymethylexemestane formation after 10 mins by Michaelis-Menten saturation curve analysis. Background: Liver microsomes are a subcellular fraction often used to study metabolism.
Data set [6] has as its system Liver microsome. The data set can be described thus: Drug metabolism in human liver microsomes assessed as retention time treated with 300 uM of exemestane after 10 mins by HPLC with UV analysis.
Data set [7] deals with Liver microsome. The data set can be described thus: Drug metabolism in human liver microsomes assessed as 6-hydroxymethylexemestane formation at 10 uM after 10 mins by LC-MS/MS analysis.
For data set [8], the target named is T1, Cytochrome P450 2B6. Put plainly: Drug metabolism assessed as human recombinant CYP2B6-mediated 6-Hydroxymethylexemestane formation at 10 uM after 10 mins by Michaelis-Menten saturation curve analysis. The note with it: recombinant enzyme.
Data set [9] deals with T2, Cytochrome P450 2C9. Put plainly: Drug metabolism assessed as human recombinant CYP2C9-mediated 6-Hydroxymethylexemestane formation at 10 uM after 10 mins by Michaelis-Menten saturation curve analysis. The note with it: recombinant enzyme.
For data set [10], the target named is T4, Cytochrome P450 2C19. Put plainly: Drug metabolism assessed as human recombinant CYP2C19-mediated 6-Hydroxymethylexemestane formation at 10 uM after 10 mins by Michaelis-Menten saturation curve analysis. The note with it: recombinant enzyme.
The target in data set [11] is T5, Cytochrome P450 2C8. Put plainly: Drug metabolism assessed as human recombinant CYP2C8-mediated 6-Hydroxymethylexemestane formation at 10 uM after 10 mins by Michaelis-Menten saturation curve analysis. The settings on record: recombinant enzyme.
The target of a further data set is Cytochrome P450 2E1 (Homo sapiens, UniProt P05181). Put plainly: Drug metabolism assessed as human recombinant CYP2E1-mediated 17-hydroexemestane and 6-Hydroxymethylexemestane formation assessed as inhibition of metabolite formation at 10 uM after 10 mins by Michaelis-Menten saturation curve analysis in presence of 50 uM diethylthiocarbamate. Also noted: interact cpd dose 50 uM. The settings on record: recombinant enzyme.

Data set [12] relates to Liver microsome. Put plainly: Drug metabolism in human liver microsomes assessed as retention time at 300 uM after 10 mins by HPLC with UV analysis.
Data set [13] concerns the target T1, Cytochrome P450 2B6. The data set can be described thus: Drug metabolism assessed as human recombinant CYP2B6-mediated 17-hydroexemestane and 6-Hydroxymethylexemestane formation assessed as inhibition of metabolite formation at 10 uM after 10 mins by Michaelis-Menten saturation curve analysis in presence of 5 uM thioTEPA. Further details: interact cpd dose 5 uM. The note with it: recombinant enzyme.

In data set [14] the test system is Liver microsome. Put plainly: Drug metabolism in human liver microsomes assessed as retention time at 50 uM after 10 mins by HPLC with UV analysis.

T4 sequence (P33261 whole entry): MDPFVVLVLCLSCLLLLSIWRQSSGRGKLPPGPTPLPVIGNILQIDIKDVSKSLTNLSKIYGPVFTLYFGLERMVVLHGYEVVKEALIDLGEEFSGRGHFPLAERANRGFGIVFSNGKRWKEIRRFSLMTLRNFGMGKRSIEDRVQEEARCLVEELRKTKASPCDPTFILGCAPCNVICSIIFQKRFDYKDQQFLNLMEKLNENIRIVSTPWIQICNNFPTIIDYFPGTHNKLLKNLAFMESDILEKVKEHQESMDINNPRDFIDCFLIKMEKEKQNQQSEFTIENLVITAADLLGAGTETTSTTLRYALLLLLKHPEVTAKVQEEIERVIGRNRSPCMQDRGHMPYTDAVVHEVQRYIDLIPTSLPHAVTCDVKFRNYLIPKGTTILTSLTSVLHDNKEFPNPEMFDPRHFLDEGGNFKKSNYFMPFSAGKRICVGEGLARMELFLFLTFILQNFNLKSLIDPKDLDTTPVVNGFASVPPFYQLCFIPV
T2 sequence (P11712 whole entry): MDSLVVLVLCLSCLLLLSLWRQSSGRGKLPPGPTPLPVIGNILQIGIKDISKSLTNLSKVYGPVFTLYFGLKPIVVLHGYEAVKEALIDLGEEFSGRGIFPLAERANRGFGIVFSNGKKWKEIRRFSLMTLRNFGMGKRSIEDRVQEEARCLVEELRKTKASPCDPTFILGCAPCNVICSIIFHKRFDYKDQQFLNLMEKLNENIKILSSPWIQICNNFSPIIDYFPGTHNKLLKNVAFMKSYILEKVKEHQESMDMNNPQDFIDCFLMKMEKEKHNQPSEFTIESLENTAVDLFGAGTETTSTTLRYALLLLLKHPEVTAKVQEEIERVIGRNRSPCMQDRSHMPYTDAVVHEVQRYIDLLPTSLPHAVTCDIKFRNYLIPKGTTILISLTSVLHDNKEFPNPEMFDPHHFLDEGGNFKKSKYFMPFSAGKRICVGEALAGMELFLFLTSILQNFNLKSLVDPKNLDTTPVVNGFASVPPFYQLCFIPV
Chain of Cytochrome P450 2E1 (P05181 whole entry): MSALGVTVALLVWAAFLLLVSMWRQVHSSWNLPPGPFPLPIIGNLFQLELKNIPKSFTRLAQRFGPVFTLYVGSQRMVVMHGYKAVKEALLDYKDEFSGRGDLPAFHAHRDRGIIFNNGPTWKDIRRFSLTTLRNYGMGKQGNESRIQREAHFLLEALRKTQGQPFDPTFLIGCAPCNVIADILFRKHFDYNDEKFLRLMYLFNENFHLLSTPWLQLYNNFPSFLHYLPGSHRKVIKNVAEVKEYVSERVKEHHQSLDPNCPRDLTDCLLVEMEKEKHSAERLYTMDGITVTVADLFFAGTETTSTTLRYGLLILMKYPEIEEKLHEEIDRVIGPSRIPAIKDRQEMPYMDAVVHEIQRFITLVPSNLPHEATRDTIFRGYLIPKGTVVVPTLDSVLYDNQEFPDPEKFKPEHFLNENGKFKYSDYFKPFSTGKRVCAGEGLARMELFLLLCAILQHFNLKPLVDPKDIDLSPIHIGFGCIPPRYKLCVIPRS
Chain of Cytochrome P450 3A5 (P20815 whole entry): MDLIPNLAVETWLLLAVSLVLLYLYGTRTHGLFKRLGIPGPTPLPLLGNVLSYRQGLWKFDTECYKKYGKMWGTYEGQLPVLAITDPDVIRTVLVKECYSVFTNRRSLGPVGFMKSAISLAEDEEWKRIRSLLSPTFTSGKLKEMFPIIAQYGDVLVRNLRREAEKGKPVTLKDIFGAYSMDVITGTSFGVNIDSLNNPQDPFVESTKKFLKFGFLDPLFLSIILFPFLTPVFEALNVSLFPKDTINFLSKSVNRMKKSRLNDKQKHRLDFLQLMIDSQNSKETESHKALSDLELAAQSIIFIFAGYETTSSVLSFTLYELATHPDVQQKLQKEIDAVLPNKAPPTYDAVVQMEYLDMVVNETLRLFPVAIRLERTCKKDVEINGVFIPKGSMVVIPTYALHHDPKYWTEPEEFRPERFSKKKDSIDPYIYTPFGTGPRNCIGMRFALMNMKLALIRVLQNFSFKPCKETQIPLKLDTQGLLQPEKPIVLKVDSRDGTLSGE
Chain of Cytochrome P450 3A4 (P08684 whole entry): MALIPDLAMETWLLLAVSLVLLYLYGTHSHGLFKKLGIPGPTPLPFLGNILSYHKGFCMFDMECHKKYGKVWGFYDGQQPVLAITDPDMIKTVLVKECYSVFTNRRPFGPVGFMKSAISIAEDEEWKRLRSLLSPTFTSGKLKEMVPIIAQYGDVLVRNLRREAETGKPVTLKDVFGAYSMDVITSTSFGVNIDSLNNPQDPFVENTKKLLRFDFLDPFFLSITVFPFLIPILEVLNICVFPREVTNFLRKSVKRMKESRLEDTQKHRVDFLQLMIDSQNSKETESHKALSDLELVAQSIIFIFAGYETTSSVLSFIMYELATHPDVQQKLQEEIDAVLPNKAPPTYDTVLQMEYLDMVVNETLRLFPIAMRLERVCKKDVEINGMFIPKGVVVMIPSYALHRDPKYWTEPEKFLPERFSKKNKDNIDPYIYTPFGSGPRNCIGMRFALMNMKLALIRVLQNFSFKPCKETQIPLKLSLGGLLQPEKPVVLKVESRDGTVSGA

Take `C[C@]12C=CC(=O)C=C1C(CO)=C[C@@H]1[C@@H]2CC[C@]2(C)C(=O)CC[C@@H]12`: the Drug metabolism is listed as 0.42 pmol/min at Cytochrome P450 3A4; 0.3 pmol/min on Cytochrome P450 3A5; 0.1 pmol/min on Cytochrome P450 2B6 [1]; “metabolite_detected” at Cytochrome P450 2C9 [2]; “metabolite_detected” at Cytochrome P450 1A1; “metabolite_detected” at Cytochrome P450 2C19 [3]. Besides, the Drug metabolism entry at Cytochrome P450 2C8 [4], at Cytochrome P450 2C9 [9], at Cytochrome P450 2C19 [10] and at Cytochrome P450 2C8 [11] was “metabolite_detected” throughout. In addition, the “Vmax(app)” value with Liver microsome [5] is 781.15 pmol/mg/min; in the data set with Liver microsome [7] it was 200.47 pmol/mg/min; at Cytochrome P450 2B6 [8] it was 1.93 pmol/mg/min. In addition, the Km (in general, the substrate concentration at which the rate is half of its maximum) is 37.1 µM in the data set on Liver microsome [5] (read-out: Km(app)) and 9 µM at Cytochrome P450 2B6 [8] (read-out: Km(app)). Moreover, the Retention_time in the data set on Liver microsome [6] stood at 6.4 min.

With `C=C1C[C@@H]2[C@H](CC[C@]3(C)C(=O)CC[C@@H]23)[C@@]2(C)C=CC(=O)C=C12` [EXEMESTANE], the “inhibition (INH)” value on Cytochrome P450 2E1 and on Cytochrome P450 2B6 [13] was less than 20% throughout. Besides, in the data set on Liver microsome [12], the Retention_time amounted to 15.6 min.

As to `C#CC1(O)CC[C@H]2[C@@H]3CCC4=CC(=O)CC[C@@H]4[C@H]3CC[C@@]21CC` (stereo not given in full) [NORGESTREL], in the data set with Liver microsome [14], the Retention_time amounted to 20.2 min.
